From ChEMBL document CHEMBL2203043, “Carbonic anhydrase inhibitors. Regioselective synthesis of novel series 1-substituted 1,4-dihydro-4-oxo-3-pyridinesulfonamides and their inhibition of the human cytosolic isozymes I and II and transmembrane cancer-associated isozymes IX and XII” (Eur J Med Chem, 2012)

Experiments:
Carbonic anhydrase 9 = Carbonic anhydrase 9 (Homo sapiens, UniProt Q16790); assay: Inhibition of human CA9 after 15 mins by stopped-flow CO2 hydrase assay
Homo sapiens = species on record: Homo sapiens; assay: Selectivity ratio of Ki for human CA2 to Ki for human CA9

| SMILES | Ki (Carbonic anhydrase 9) [nM] | Ratio Ki (Homo sapiens) |
| --- | --- | --- |
| NS(=O)(=O)c1cn(CC(=O)NS(=O)(=O)c2ccccc2Cl)ccc1=O | 29.7 | – |
| NS(=O)(=O)c1cn(CC(=O)NS(=O)(=O)c2ccc([N+](=O)[O-])cc2)ccc1=O | 65.2 | – |
| Cc1noc(C)c1Cn1ccc(=O)c(S(N)(=O)=O)c1 | 23.1 | – |
| N#CCCCn1ccc(=O)c(S(N)(=O)=O)c1 | 67.2 | – |
| Cc1ccc(-n2c(Cn3ccc(=O)c(S(N)(=O)=O)c3)nc3ccccc3c2=O)cc1 | 70.3 | – |
| NS(=O)(=O)c1cn(CCO)ccc1=O | 54.7 | – |
| NS(=O)(=O)c1ccc(S(=O)(=O)Nc2cccc3c(Cl)c[nH]c23)cc1 | – | 0.33 |
| CC1=NN(c2nc(N)nc(Cn3ccc(=O)c(S(N)(=O)=O)c3)n2)CC1 | 77.8 | – |
| CC(=O)/N=c1/sc(S(N)(=O)=O)nn1C | – | 0.33 |
| NS(=O)(=O)c1cn(CC(=O)NS(=O)(=O)c2ccc(Cl)cc2)ccc1=O | 38.6 | – |
| NS(=O)(=O)c1cn(Cc2nc3ccccc3c(=O)n2-c2ccccc2)ccc1=O | 76.2 | – |
| COC(=O)c1ccccc1NC(=O)Cn1ccc(=O)c(S(N)(=O)=O)c1 | 86.4 | – |
| CN(C)c1nc(N)nc(Cn2ccc(=O)c(S(N)(=O)=O)c2)n1 | 16.5 | – |
| Cc1cccc(C)c1NC(=O)Cn1ccc(=O)c(S(N)(=O)=O)c1 | 17.3 | – |
| Cc1ccc(S(=O)(=O)NNC(=O)Cn2ccc(=O)c(S(N)(=O)=O)c2)cc1 | 11.8 | – |
| NS(=O)(=O)c1cc(Cl)c(Cl)c(S(N)(=O)=O)c1 | – | 0.33 |
| CC(=O)Nc1nnc(S(N)(=O)=O)s1 | – | 0.33 |
| Nc1nc(Cn2ccc(=O)c(S(N)(=O)=O)c2)nc(N2CCOCC2)n1 | 72.5 | – |
| CCN(c1ccccc1)c1nc(N)nc(Cn2ccc(=O)c(S(N)(=O)=O)c2)n1 | 50.1 | – |
| NS(=O)(=O)c1cn(CC(=O)NNC(=O)c2ccco2)ccc1=O | 56.1 | – |
| NS(=O)(=O)c1cn(CC2CC2)ccc1=O | 85.1 | – |
| CC1=NN(c2nc(N)nc(Cn3ccc(=O)c(S(N)(=O)=O)c3)n2)C(C)(C)C1 | 66.3 | – |
| NS(=O)(=O)c1cn(Cc2nc3ccccc3c(=O)n2-c2ccc(Cl)cc2)ccc1=O | 71.2 | – |
| CCOC(=O)Cn1ccc(=O)c(S(N)(=O)=O)c1 | 60.1 | – |
| NS(=O)(=O)c1cn(CC(=O)Nc2ccc(Cl)c([N+](=O)[O-])c2)ccc1=O | 60.6 | – |
| CCOc1ccc2nc(S(N)(=O)=O)sc2c1 | – | 0.33 |
| NS(=O)(=O)c1cn(CC(=O)Nc2cccc([N+](=O)[O-])c2)ccc1=O | 33.4 | – |
| NS(=O)(=O)c1cn(CC(=O)Nc2ccc(Cl)cc2)ccc1=O | 93.4 | – |
